The results in this text go back to patent US20220370416A1, “COMPOUNDS AND METHODS FOR TARGETED DEGRADATION OF KRAS” (Arvinas Operations, Inc., priority 2020, published 2022).

The target of assay [1] is T1, HiBit-KRAS^G12C (Homo sapiens, UniProt P01116, G12C). Nature of the assay: HiBit degradation assay in MiaPaCa-2 HiBit-KRas^G12C cells. The format is cell-based. The settings on record: 24 hours; for Dmax: MIA PaCa-2, MiaPaCa-2 HiBit-KRas^G12C cells. An outline of the steps:
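MiaPaCa-2 cells with CRISPR N-terminal HiBit knock-in on one endogenous KRAS^G12C allele, treated 24 hours at 37° C with compound titrated 10 μM to 20 nM (0.1% or 0.5% DMSO). Lytic HiBit luminescence normalized to DMSO, 4-parameter fit giving DC50 and Dmax; points cytotoxic to […] cells by alamar blue excluded.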
Background: The HiBiT peptide binds its large partner to form an active luciferase.

For assay [2], the target named is T1, HiBit-KRAS^G12C. The experiment in a line: HiBit degradation assay in SW1573 HiBit-KRas^G12C cells. It counts as cell-based. Set-up: expressed in transfected cells; host or cells: SW1573 (clone E6), modified pcDNA3.1 vector, TK promoter. The settings on record: 24 hours; for Dmax: SW1573, SW1573 HiBit-KRas^G12C; for DC50 / KRas^G12C-HiBiT (SW1573; 0.5% DMSO) Dmax**: SW1573 HiBit-KRas^G12C. In short, it runs like this:
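SW1573 cells stably expressing N-terminally HiBit-tagged KRAS G12C, under the TK promoter, were treated 24 h at 37 °C with 10 μM to 20 nM compound in 0.1% or 0.5% DMSO. Residual HiBit luminescence normalised to DMSO and fitted with a 4-parameter model for DC50 and Dmax. Points with ≥50% viability loss (alamar blue) excluded.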

The mark [3] stands for this setting: 0.1% DMSO, maximum degradation, read-out: KRas^G12C-HiBiT (MiaPaCa; 0.1% DMSO) DMax.
The mark [4] stands for this setting: 0.5% DMSO, maximum degradation, read-out: KRas^G12C-HiBiT (MiaPaCa; 0.5% DMSO) DMax.
Setting [5] is: 0.1% DMSO, read-out: KRas^G12C-HiBit (SW1573; 0.1% DMSO) Dmax**.
Setting [6] is: 0.5% DMSO, read-out: KRas^G12C-HiBiT (SW1573; 0.5% DMSO) Dmax**.
The mark [7] stands for this setting: 0.1% DMSO, read-out: KRas^G12C-HIBit (SW1573; 0.1% DMSO) DC50*.
Setting [8] is: read-out: KRas^G12C-HiBiT (MiaPaCa; 0.5% DMSO) IC50, MiaPaCa-2 HiBit-KRas^G12C cells, 0.5% DMSO.
The mark [9] stands for this setting: read-out: KRas^G12C-HiBiT (SW1573; 0.5% DMSO) IC50***, 0.5% DMSO.

SMILES strings stand for the structures.

T1 sequence (P01116 1-186 isoform P01116-2 G12C limits assumed): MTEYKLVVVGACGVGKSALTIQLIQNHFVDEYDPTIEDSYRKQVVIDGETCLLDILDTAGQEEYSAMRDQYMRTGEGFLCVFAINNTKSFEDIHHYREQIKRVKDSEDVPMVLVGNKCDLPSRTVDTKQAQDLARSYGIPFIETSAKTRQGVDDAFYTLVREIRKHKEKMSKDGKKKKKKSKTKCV

Take `C=CC(=O)N1CCN(c2nc(OCCN3CCC(OCCOCC(=O)N[C@H](C(=O)N4C[C@H](O)C[C@H]4C(=O)N[C@@H](C)c4ccc(-c5scnc5C)cc4)C(C)(C)C)CC3)nc3c(F)c(-c4cc(O)cc5ccccc45)c(Cl)cc23)C[C@@H]1CC#N` [Compound 32, (2S,4R)-1-[(2S)-2-{2-[2-({1-[2-({6-chloro-4-[(3S)-3-(cyanomethyl)-4-(prop-2-enoyl)piperazin-1-yl]-8-fluoro-7-(3-hydroxynaphthalen-1-yl)quinazolin-2-yl}oxy)ethyl]piperidin-4-yl}oxy)ethoxy]acetamido}-3,3-dimethylbutanoyl]-4-hydroxy-N-[(1S)-1-[4-(4-methyl-1,3-thiazol-5-yl)phenyl]ethyl]pyrrolidine-2-carboxamide]: the Dmax on HiBit-KRAS^G12C [1] (setting [3]) is 35 to 70%; at HiBit-KRAS^G12C [1] (setting [4]) it was greater than 70%; at HiBit-KRAS^G12C [2] (setting [5]), 35 to 70%; at HiBit-KRAS^G12C [2] (setting [6]), greater than 70%. Besides, on HiBit-KRAS^G12C [2] (setting [7]), the DC50 lay in the range of 100 to 1000 nM.

As for `C=CC(=O)N1CCN(c2nc(O[C@H](C)CN3CCC(COc4cc([C@H](C(=O)N5C[C@H](O)C[C@H]5C(=O)N[C@@H](C)c5ccc(-c6scnc6C)cc5)C(C)C)on4)CC3)nc3c(F)c(-c4cc(O)cc5ccccc45)c(Cl)cc23)C[C@@H]1CC#N` [Compound 153, (2S,4R)-1-[(2R)-2-[3-({1-[(2R)-2-({6-chloro-4-[(3S)-3-(cyanomethyl)-4-(prop-2-enoyl)piperazin-1-yl]-8-fluoro-7-(3-hydroxynaphthalen-1-yl)quinazolin-2-yl}oxy)propyl]piperidin-4-yl}methoxy)-1,2-oxazol-5-yl]-3-methylbutanoyl]-4-hydroxy-N-[(1S)-1-[4-(4-methyl-1,3-thiazol-5-yl)phenyl]ethyl]pyrrolidine-2-carboxamide], the Dmax at HiBit-KRAS^G12C [1] (setting [4]) and at HiBit-KRAS^G12C [2] (setting [6]) was greater than 70% throughout. The DC50 on HiBit-KRAS^G12C [1] (setting [8]) and on HiBit-KRAS^G12C [2] (setting [9]) was 100 to 1000 nM in each case.

For `C=C(F)C(=O)N1CCN(c2nc(OCCN3CCC(COc4cc([C@H](C(=O)N5C[C@H](O)C[C@H]5C(=O)N[C@@H](C)c5ccc(-c6scnc6C)cc5)C(C)C)on4)CC3)nc3c(F)c(-c4cc(O)cc5ccccc45)c(Cl)cc23)C[C@@H]1CC#N` (atropisomer, axis not shown) [Compound 166, (2S,4R)-1-[(2R)-2-[3-({1-[2-({6-chloro-4-[(3S)-3-(cyanomethyl)-4-(2-fluoroprop-2-enoyl)piperazin-1-yl]-8-fluoro-7-(3-hydroxynaphthalen-1-yl)quinazolin-2-yl}oxy)ethyl]piperidin-4-yl}methoxy)-1,2-oxazol-5-yl]-3-methylbutanoyl]-4-hydroxy-N-[(1S)-1-[4-(4-methyl-1,3-thiazol-5-yl)phenyl]ethyl]pyrrolidine-2-carboxamide], the values for the DC50 on HiBit-KRAS^G12C [1] (setting [8]) and at HiBit-KRAS^G12C [2] (setting [9]) were greater than 1000 nM and 100 to 1000 nM, respectively. Further, the “KRas^G12C-HiBiT (SW1573; 0.5% DMSO) Dmax**” value on HiBit-KRAS^G12C [2] (0.5% DMSO) is recorded as “B (35 < B < 70)”.

As to `C=C(F)C(=O)N1CCN(c2nc(OCCN3CCC(C)(COc4cc([C@@H](C(=O)N5C[C@H](O)C[C@H]5C(=O)N[C@@H](C)c5ccc(-c6ccnn6C)cc5)C(C)C)on4)CC3)nc3c(F)c(-c4cc(O)cc5ccccc45)c(Cl)cc23)C[C@@H]1CC#N` (atropisomer, axis not shown) [Compound 125, (2S,4R)-1-[(2S)-2-[3-({1-[2-({6-chloro-4-[(3S)-3-(cyanomethyl)-4-(2-fluoroprop-2-enoyl)piperazin-1-yl]-8-fluoro-7-(3-hydroxynaphthalen-1-yl)quinazolin-2-yl}oxy)ethyl]-4-methylpiperidin-4-yl}methoxy)-1,2-oxazol-5-yl]-3-methylbutanoyl]-4-hydroxy-N-[(1S)-1-[4-(1-methyl-1H-pyrazol-5-yl)phenyl]ethyl]pyrrolidine-2-carboxamide], the values for the DC50 at HiBit-KRAS^G12C [1] (setting [8]) and on HiBit-KRAS^G12C [2] (setting [9]) were greater than 1000 nM and 100 to 1000 nM, respectively.

On to `C=CC(=O)N1CCN(c2nc(OCCN3CCC(COc4cc([C@H](C(=O)N5C[C@H](O)C[C@H]5C(=O)N[C@@H](C)c5ccc(-c6scnc6C)cc5)C(C)C)on4)CC3)nc3c(F)c(-c4cc(O)cc5ccccc45)c(Cl)cc23)C[C@@H]1CC#N` (atropisomer, axis not shown) [Compound 104, (2S,4R)-1-[(2R)-2-[3-({1-[2-({6-chloro-4-[(3S)-3-(cyanomethyl)-4-(prop-2-enoyl)piperazin-1-yl]-8-fluoro-7-(3-hydroxynaphthalen-1-yl)quinazolin-2-yl}oxy)ethyl]piperidin-4-yl}methoxy)-1,2-oxazol-5-yl]-3-methylbutanoyl]-4-hydroxy-N-[(1S)-1-[4-(4-methyl-1,3-thiazol-5-yl)phenyl]ethyl]pyrrolidine-2-carboxamide], for which the “KRas^G12C-HiBiT (MiaPaCa; 0.5% DMSO) DMax” value at HiBit-KRAS^G12C [1] (MiaPaCa-2 HiBit-KRas^G12C cells, 0.5% DMSO, maximum degradation) is given as “C (C ≤ 35)”. The DC50 on HiBit-KRAS^G12C [1] (setting [8]) and on HiBit-KRAS^G12C [2] (setting [9]) was 100 to 1000 nM throughout. Also, at HiBit-KRAS^G12C [2] (0.5% DMSO), the “KRas^G12C-HiBiT (SW1573; 0.5% DMSO) Dmax**” value was “C (C ≤ 35)”.

With `C=CC(=O)N1CCN(c2nc(OCCN3CCC4(CC3)CN(c3cc([C@@H](C(=O)N5C[C@H](O)C[C@H]5C(=O)N[C@@H](C)c5ccc(-c6ccnn6C)cc5)C(C)C)on3)C4)nc3c(F)c(-c4cc(O)cc5ccccc45)c(Cl)cc23)C[C@@H]1CC#N` (atropisomer, axis not shown) [Compound 101, (2S,4R)-1-[(2S)-2-(3-{7-[2-({6-chloro-4-[(3S)-3-(cyanomethyl)-4-(prop-2-enoyl)piperazin-1-yl]-8-fluoro-7-(3-hydroxynaphthalen-1-yl)quinazolin-2-yl}oxy)ethyl]-2,7-diazaspiro[3.5]nonan-2-yl}-1,2-oxazol-5-yl)-3-methylbutanoyl]-4-hydroxy-N-[(1S)-1-[4-(1-methyl-1H-pyrazol-5-yl)phenyl]ethyl]pyrrolidine-2-carboxamide], the DC50 at HiBit-KRAS^G12C [1] (setting [8]) and at HiBit-KRAS^G12C [2] (setting [9]) was greater than 1000 nM in each case.

Consider `C=CC(=O)N1CCN(c2nc(O[C@H](C)CN3CCC(OCCOCC(=O)N[C@H](C(=O)N4C[C@H](O)C[C@H]4C(=O)N[C@@H](C)c4ccc(-c5scnc5C)cc4)C(C)(C)C)CC3)nc3c(F)c(-c4cc(O)cc5ccccc45)c(Cl)cc23)CC1` (atropisomer, axis not shown) [Compound 86, (2S,4R)-1-[(2S)-2-{2-[2-({1-[(2R)-2-{[6-chloro-8-fluoro-7-(3-hydroxynaphthalen-1-yl)-4-[4-(prop-2-enoyl)piperazin-1-yl]quinazolin-2-yl]oxy}propyl]piperidin-4-yl}oxy)ethoxy]acetamido}-3,3-dimethylbutanoyl]-4-hydroxy-N-[(1S)-1-[4-(4-methyl-1,3-thiazol-5-yl)phenyl]ethyl]pyrrolidine-2-carboxamide], for which the Dmax on HiBit-KRAS^G12C [1] (setting [3]), on HiBit-KRAS^G12C [1] (setting [4]), at HiBit-KRAS^G12C [2] (setting [5]) and at HiBit-KRAS^G12C [2] (setting [6]) was 35 to 70% each time. For the same compound, the DC50 on HiBit-KRAS^G12C [2] (setting [7]) is 100 to 1000 nM.

Take `C=C(F)C(=O)N1CCN(c2nc(OCCN3CCC(C)(COc4cc([C@@H](C(=O)N5C[C@H](O)C[C@H]5C(=O)N[C@@H](C)c5ccc(-c6scnc6C)cc5)C(C)C)on4)CC3)nc3c(F)c(-c4cc(O)cc5ccccc45)c(Cl)cc23)C[C@@H]1CC#N` (atropisomer, axis not shown) [Compound 126, (2S,4R)-1-[(2S)-2-[3-({1-[2-({6-chloro-4-[(3S)-3-(cyanomethyl)-4-(2-fluoroprop-2-enoyl)piperazin-1-yl]-8-fluoro-7-(3-hydroxynaphthalen-1-yl)quinazolin-2-yl}oxy)ethyl]-4-methylpiperidin-4-yl}methoxy)-1,2-oxazol-5-yl]-3-methylbutanoyl]-4-hydroxy-N-[(1S)-1-[4-(4-methyl-1,3-thiazol-5-yl)phenyl]ethyl]pyrrolidine-2-carboxamide]: the DC50 on HiBit-KRAS^G12C [1] (setting [8]) and at HiBit-KRAS^G12C [2] (setting [9]) was greater than 1000 nM in each case.

Consider `C=CC(=O)N1CCN(c2nc(O[C@H](C)CN3CCC(OCCOCC(=O)N[C@H](C(=O)N4C[C@H](O)C[C@H]4C(=O)N[C@@H](C)c4ccc(-c5scnc5C)cc4)C(C)(C)C)CC3)nc3c(F)c(-c4cc(O)cc5ccccc45)c(Cl)cc23)C[C@H]1C` [Compound 45, (2S,4R)-1-[(2S)-2-{2-[2-({1-[(2R)-2-{[6-chloro-8-fluoro-7-(3-hydroxynaphthalen-1-yl)-4-[(3R)-3-methyl-4-(prop-2-enoyl)piperazin-1-yl]quinazolin-2-yl]oxy}propyl]piperidin-4-yl}oxy)ethoxy]acetamido}-3,3-dimethylbutanoyl]-4-hydroxy-N-[(1S)-1-[4-(4-methyl-1,3-thiazol-5-yl)phenyl]ethyl]pyrrolidine-2-carboxamide], for which the DC50 at HiBit-KRAS^G12C [1] (read-out: KRas^G12C-HiBiT (MiaPaCa; 0.1% DMSO) IC50, MiaPaCa-2 HiBit-KRas^G12C cells, 0.1% DMSO) was greater than 1000 nM; on HiBit-KRAS^G12C [2] (setting [7]), 100 to 1000 nM. The Dmax on HiBit-KRAS^G12C [2] (setting [5]) is less than 35%.
